In patent US11166460B2, “α-amino acrylate microbicide, and preparation method therefor and uses thereof” (priority 2017, dated 2021):
Converted amounts (≈) assume the structure as drawn. Counter-ions that a name gives are not always drawn. Like-named read-outs stand apart in the source and are kept apart here.

Legend:
[1] = test system: tobacco mosaic virus (TMV); assay: Anti-TMV curative activity (treatment mode), live friction inoculation on tobacco seedlings; assay type: in vivo; details: for inhibition at 100 µg/mL: Tobacco mosaic virus
[2] = test system: tobacco mosaic virus (TMV); assay: Anti-TMV inactivation activity (inactivation mode), compound mixed with TMV before inoculation of tobacco leaves; assay type: in vivo; details: for inhibition at 100 µg/mL: Tobacco mosaic virus, read-out: Anti-TMV activity, Inactivation effect (inhibition)
[3] = test system: tobacco mosaic virus (TMV); assay: Anti-TMV protective activity (protection mode), live friction inoculation on tobacco seedlings; assay type: in vivo; details: for inhibition at 100 µg/mL: Tobacco mosaic virus, read-out: Anti-TMV activity, Protection effect (inhibition)
[4] = test system: tobacco mosaic virus (TMV); assay: Anti-TMV inducing activity (induction mode), tobacco seedlings; assay type: in vivo; details: for inhibition at 100 µg/mL: Tobacco mosaic virus
[5] = test system: Alternaria solani; assay: Fungicidal activity, fungi growth rate method, AS; assay type: cell-based; details: 50 μg/mL; for inhibition at 50 µg/mL: Alternaria solani
[6] = test system: Botrytis cinerea; assay: Fungicidal activity, fungi growth rate method, BC; assay type: cell-based; details: 50 μg/mL; for inhibition at 50 µg/mL: Botrytis cinerea
[7] = test system: Cercospora arachidicola; assay: Fungicidal activity, fungi growth rate method, CA; assay type: cell-based; details: 50 μg/mL; for inhibition at 50 µg/mL: Mycosphaerella arachidis
[8] = test system: wheat Gibberella zeae; assay: microbe, parasite or virus in culture; assay type: cell-based; details: for inhibition at 50 µg/mL: Fusarium graminearum
[9] = test system: Phytophthora infestans (Mont) de Bary; assay: microbe, parasite or virus in culture; assay type: cell-based; details: for inhibition at 50 µg/mL: Phytophthora infestans
[10] = test system: Physalospora piricola; assay: Fungicidal activity, fungi growth rate method, PP; assay type: cell-based; details: 50 μg/mL
[11] = test system: Pellicularia sasakii; assay: Fungicidal activity, fungi growth rate method, PS; assay type: cell-based; details: 50 μg/mL
[12] = test system: Rhizoctonia cerealis; assay: Fungicidal activity, fungi growth rate method, RC; assay type: cell-based; details: 50 μg/mL; for inhibition at 50 µg/mL: Ceratobasidium cereale
[13] = test system: Sclerotinia sclerotiorum; assay: microbe, parasite or virus in culture; assay type: cell-based
[14] = read-out: Anti-TMV activity, Curative effect (inhibition), 100 μg/mL, tobacco seedlings, checked on seventh day
[15] = read-out: Anti-TMV activity, Induction effect (inhibition), 100 μg/mL, tobacco seedlings
[16] = read-out: Fungicidal activity, inhibition, AS
[17] = read-out: Fungicidal activity, inhibition, BC
[18] = read-out: Fungicidal activity, inhibition, CA
[19] = read-out: Fungicidal activity, inhibition, GZ
[20] = read-out: Fungicidal activity, inhibition, PI
[21] = read-out: Fungicidal activity, inhibition, PP
[22] = read-out: Fungicidal activity, inhibition, PS
[23] = read-out: Fungicidal activity, inhibition, RC
[24] = Sclerotinia sclerotiorum, 50 μg/mL, read-out: Fungicidal activity, inhibition, SS
[25] = 100 μg/mL, tobacco leaves, checked on seventh day
[26] = 100 μg/mL, tobacco seedlings, read-out: Anti-TMV activity, Induction effect (inhibition)
[27] = read-out: Fungicidal activity (inhibition) against AS: Alternaria solani
[28] = read-out: Fungicidal activity (inhibition) against BC: Botrytis cinerea
[29] = read-out: Fungicidal activity (inhibition) against CA: Cercospora arachidicola
[30] = read-out: Fungicidal activity (inhibition) against GZ: wheat Gibberella zeae
[31] = read-out: Fungicidal activity (inhibition) against PI: Phytophthora infestans (Mont) de Bary
[32] = read-out: Fungicidal activity (inhibition) against PP: Physalospora piricola
[33] = read-out: Fungicidal activity (inhibition) against PS: Pellicularia sasakii
[34] = read-out: Fungicidal activity (inhibition) against RC: Rhizoctonia cerealis
[35] = Sclerotinia sclerotiorum, 50 μg/mL, read-out: Fungicidal activity (inhibition) against SS: Sclerotinia sclerotiorum
[36] = 100 μg/mL, tobacco seedlings, checked on seventh day

SMILES: O=C(N/C(=C\c1ccccc1)C(=O)N1CCC(O)(c2ccc(Br)cc2)CC1)C1CCNCC1 (as salt: hydrochloride) [Compound 4, (Z)-N-[1-[[4-(4-bromophenyl)-4-hydroxy-1-piperidinyl]carbonyl]-2-phenylethenyl]-1-piperidine-4-carboxamide-hydrochloride]
- melting point: 147 to 149 °C

SMILES: O=C(N/C(=C\c1ccccc1)C(=O)N1CCC(O)(c2ccc(Br)cc2)CC1)C1CCNCC1 [Compound 4, (Z)-N-[1-[[4-(4-bromophenyl)-4-hydroxy-1-piperidinyl]carbonyl]-2-phenylethenyl]-1-piperidine-4-carboxamide-hydrochloride]
- inhibition at 100 µg/mL [1, 14]: 0%
- inhibition at 100 µg/mL [2]: 3%
- inhibition at 100 µg/mL [3]: 1%
- inhibition at 100 µg/mL [4, 15]: 1%
- inhibition at 50 µg/mL [5, 16]: 21%
- inhibition at 50 µg/mL [6, 17]: 24%
- inhibition at 50 µg/mL [7, 18]: 6%
- inhibition at 50 µg/mL [8, 19]: 43%
- inhibition at 50 µg/mL [9, 20]: 11%
- inhibition at 50 µg/mL [10, 21]: 12%
- inhibition at 50 µg/mL [11, 22]: 9%
- inhibition at 50 µg/mL [12, 23]: 23%
- inhibition at 50 µg/mL [13, 24]: 47%

SMILES: NC(=O)c1ncn([C@@H]2O[C@H](CO)[C@@H](O)[C@H]2O)n1 [Ribavirin, ribavirin, reference compound]
- inhibition at 100 µg/mL [1, 14]: 28%
- inhibition at 100 µg/mL [2, 25]: 81%
- inhibition at 100 µg/mL [3]: 58%
- inhibition at 100 µg/mL [4, 26]: 4%

SMILES: O=C(N/C(=C\c1ccccc1)C(=O)N1CCC(O)(c2ccc(Br)cc2)CC1)c1ccccc1 [Compound 76, (Z)-N-[1-[[4-(4-bromophenyl)-4-hydroxy-1-piperidinyl]carbonyl]-2-phenylethenyl]benzamide, reference compound]
- inhibition at 100 µg/mL [1, 14]: 0%
- inhibition at 100 µg/mL [2]: 29%
- inhibition at 100 µg/mL [3]: 38%
- inhibition at 100 µg/mL [4, 15]: 15%
- inhibition at 50 µg/mL [5, 27]: 14%
- inhibition at 50 µg/mL [5, 16]: 14%
- inhibition at 50 µg/mL [6, 28]: 18%
- inhibition at 50 µg/mL [6, 17]: 18%
- inhibition at 50 µg/mL [7, 29]: 24%
- inhibition at 50 µg/mL [7, 18]: 24%
- inhibition at 50 µg/mL [8, 30]: 43%
- inhibition at 50 µg/mL [8, 19]: 43%
- inhibition at 50 µg/mL [9, 31]: 24%
- inhibition at 50 µg/mL [9, 20]: 24%
- inhibition at 50 µg/mL [10, 32]: 15%
- inhibition at 50 µg/mL [10, 21]: 15%
- inhibition at 50 µg/mL [11, 33]: 14%
- inhibition at 50 µg/mL [11, 22]: 14%
- inhibition at 50 µg/mL [12, 34]: 15%
- inhibition at 50 µg/mL [12, 23]: 15%
- inhibition at 50 µg/mL [13, 35]: 50%
- inhibition at 50 µg/mL [13, 24]: 50%

SMILES: CNCC(=O)N[C@@H](CO)C(=O)N[C@H]1[C@H](O)[C@@H](O)[C@H](n2ccc(N)nc2=O)O[C@@H]1C(N)=O [Ningnanmycin, ningnanmycin, reference compound]
- Anti-TMV activity, Curative effect (inhibition) [1, 36]: 62%
- inhibition at 100 µg/mL [1, 14]: 63%
- inhibition at 100 µg/mL [2]: 58%
- inhibition at 100 µg/mL [3]: 71%
- inhibition at 100 µg/mL [4, 15]: 82%

SMILES: CO/C=C(/C(=O)OC)c1ccccc1Oc1cc(Oc2ccccc2C#N)ncn1 [azoxystrobin, reference compound]
- Fungicidal activity (inhibition) against AS: Alternaria solani [5]: 79%
- Fungicidal activity (inhibition) against BC: Botrytis cinerea [6]: 78%
- Fungicidal activity (inhibition) against CA: Cercospora arachidicola [7]: 81%
- Fungicidal activity (inhibition) against GZ: wheat Gibberella zeae ([8]; 50 μg/mL): 100%
- Fungicidal activity (inhibition) against PI: Phytophthora infestans (Mont) de Bary ([9]; 50 μg/mL): 91%
- Fungicidal activity (inhibition) against PP: Physalospora piricola [10]: 81%
- Fungicidal activity (inhibition) against PS: Pellicularia sasakii [11]: 92%
- Fungicidal activity (inhibition) against RC: Rhizoctonia cerealis [12]: 67%
- Fungicidal activity, inhibition, SS ([13]; 50 μg/mL): 100%

SMILES: CSC(=O)c1cccc2nnsc12 [BTH, Acibenzolar-S-Methyl, reference compound]
- Anti-TMV activity, Curative effect (inhibition) [1, 36]: 50.00%
- Anti-TMV activity, Inactivation effect (inhibition) [2, 25]: 63%
- Anti-TMV activity, Protection effect (inhibition) [3, 36]: 76%
- Anti-TMV activity, Induction effect (inhibition) ([4]; 100 μg/mL, tobacco seedlings): 96%

SMILES: Cc1ccc(NC(=O)c2snnc2C)cc1Cl [TDL, Tiadinil, reference compound]
- inhibition at 100 µg/mL ([1]; 100 μg/mL, tobacco seedlings, checked on seventh day, read-out: Anti-TMV activity, Curative effect (inhibition)): 49%
- inhibition at 100 µg/mL [2, 25]: 55%
- inhibition at 100 µg/mL [3, 36]: 32%
- inhibition at 100 µg/mL [4, 26]: 73%

SMILES: O=C(N/C(=C\c1cccs1)C(=O)N1CCC(O)(c2ccc(Br)cc2)CC1)c1ccccc1 [Compound 24, (Z)-N-[1-[[4-(4-bromophenyl)-4-hydroxy-1-piperidinyl]carbonyl]-2-(2-thienyl)ethenyl]benzamide]
- inhibition at 100 µg/mL [1, 14]: 0%
- inhibition at 100 µg/mL [2]: 1%
- inhibition at 100 µg/mL [3]: 36%
- inhibition at 50 µg/mL [5, 27]: < 30%
- inhibition at 50 µg/mL [5, 16]: 15%
- inhibition at 50 µg/mL [6, 28]: ≤ 20%
- inhibition at 50 µg/mL [6, 17]: 14%
- inhibition at 50 µg/mL [7, 29]: < 25%
- inhibition at 50 µg/mL [7, 18]: 16%
- inhibition at 50 µg/mL [8, 30]: < 45%
- inhibition at 50 µg/mL [8, 19]: 23%
- inhibition at 50 µg/mL [9, 31]: < 25%
- inhibition at 50 µg/mL [9, 20]: 17%
- inhibition at 50 µg/mL [10, 32]: < 20%
- inhibition at 50 µg/mL [10, 21]: 10%
- inhibition at 50 µg/mL [11, 33]: < 30%
- inhibition at 50 µg/mL [11, 22]: 18%
- inhibition at 50 µg/mL [12, 34]: < 20%
- inhibition at 50 µg/mL [12, 23]: 19%
- inhibition at 50 µg/mL [13, 35]: 67%
- inhibition at 50 µg/mL [13, 24]: 67%
- melting point: 180 to 182 °C

SMILES: O=C(N/C(=C\c1ccco1)C(=O)N1CCC(O)(c2ccc(Br)cc2)CC1)c1ccccc1 [Compound 25, (Z)-N-[1-[[4-(4-bromophenyl)-4-hydroxy-1-piperidinyl]carbonyl]-2-(2-furanyl)ethenyl]benzamide]
- inhibition at 100 µg/mL [1, 14]: 55%
- inhibition at 100 µg/mL [2]: 31%
- inhibition at 100 µg/mL [3]: 46%
- inhibition at 50 µg/mL [5, 27]: < 30%
- inhibition at 50 µg/mL [5, 16]: 16%
- inhibition at 50 µg/mL [6, 28]: ≤ 20%
- inhibition at 50 µg/mL [6, 17]: 20%
- inhibition at 50 µg/mL [7, 29]: < 25%
- inhibition at 50 µg/mL [7, 18]: 22%
- inhibition at 50 µg/mL [8, 30]: < 45%
- inhibition at 50 µg/mL [8, 19]: 31%
- inhibition at 50 µg/mL [9, 31]: < 25%
- inhibition at 50 µg/mL [9, 20]: 10%
- inhibition at 50 µg/mL [10, 32]: < 20%
- inhibition at 50 µg/mL [10, 21]: 15%
- inhibition at 50 µg/mL [11, 33]: < 30%
- inhibition at 50 µg/mL [11, 22]: 27%
- inhibition at 50 µg/mL [12, 34]: 36%
- inhibition at 50 µg/mL [12, 23]: 36%
- EC90 ([13]; Sclerotinia sclerotiorum, read-out: EC90 against S. sclerotiorum in vitro): 221 µg/mL (≈ 446 µM)
- inhibition at 50 µg/mL [13, 35]: 100%
- inhibition at 50 µg/mL [13, 24]: 100%
- melting point: 134 to 135 °C
